Key:
[1] = tested on: Human IgM; assay: Glycan array analysis (primary test), glycan score of Human IgM; format: binding
Excerpt: (§1) This testing platform utilized Agnitio BioIC system which performed an automatically ELISA reaction within a microfluidic cartridge. Each cartridge contained an array of microfluidic pumps and valves, a channel network, reagent storage reservoirs, a glycan array reaction zone, and a waste storage reservoir. To perform the test, all reagent and test sample were pumped sequentially, from their respected reservoirs in to a reaction zone containing the glycan microarray in order to carry out a multiplexed ELISA reaction with chemical luminescence. The result data was captured simultaneously and data analysis was performed by the LabIT software provided by Agnitio Science and Technology Inc. The specification of equipment list of Agnitio BioIC system is listed in Table 2.
The Microfluidic cartridge was manufactured at Agnitio Science and Technology Inc. The microfluidic cartridge was composed by three layers shown in FIG. 9. The upper layer contained serum and reagents reservoirs, microfluidic pumps, and ELISA channel network. The rubber middle layer contained a coated nitrocellulose membrane. The glycan antigens (Globo H-ceramide and Globo H-lipid 1) were immobilized onto the nitrocellulose membrane via hydrophobic interactions. The bottom layer contained a tank as for the waste reservoir. There were one hundred and twenty spots for original array layout design. In order to ensure the spot-to-spot coefficient of variation (CV) was lower than 15%, we only used central sixty-four spots for following clinical sample test.
Reagent preparation: Sixty-six microliter Normal Human Serum (NETS) or pancreatic cancer patient's serum was added in 594 μL Sample Diluent Buffer (BioCheck Inc., Cat#MB 10175) to form ten-fold dilution. The Secondary Antibody Solution was performed by first adding 2 μL Horseradish peroxidase (HRP)-conjugated goat anti-human IgG (KPL Inc., Cat#474-1002)/IgM (KPL Inc., Cat#474-1003) in 98 μL Conjugate Buffer (SuperBlock (TBS) Blocking Buffer plus 0.2% Tween 20, Thermo Fisher Scientific Inc., Cat#37535) to form fifty-fold dilution. Next, 40 μL diluted solution was pumped into 2360 μL Conjugate Buffer to form the Secondary Antibody Solution (3000× diluted).
Assay procedure: Six hundred and twenty microliter Wash Buffer (Phosphate-buffered saline (Thermo Fisher Scientific Inc., Cat#70011) plus 0.2% (vol/vol) Tween 20 (J. T. Baker, Cat#JTB-X251-07)) was added in the “Wash” hole of array. […]
(§2) The glycan array was put on the Agnitio BioIC Pumping Machine for pressurizing 30 minutes. The bound serum was visualized monitored using Agnitio BioIC Analyzer. The absorbance intensity of array was converted into “Glycan Scores” based on the following calculation: In certain examples, glycan scores=(raw data−background)/Internal Control×10. […]

[2] = tested on: IgM; assay: Sugar array IgM binding with pancreatic cancer and healthy clinical samples; parameters: species or system human
Procedure: The Globo H lipid 1, Globo H lipid 2, and Globo H-ceramide were immobilized on microtiter plate from 0.001 to 10 μg/mL, separately. […] In addition, the comparison of IgM binding patterns of Globo H-ceramide, Globo H-lipid 1, and Globo H-lipid 2 using sugar array was listed in FIG. 8B. […] In some embodiments the complex binding agent may comprise any of the complex binding agents or detectable labels of this disclosure. In certain exemplary embodiments, the Globo H ceramide and Globo H lipids are the array elements and the IgM antibodies are from the sample. And then secondary labeled anti-human ab are used to detect the complexes

[3] = tested on: VK9; assay: ELISA binding of VK9 to plate-coated Globo H-ceramide and Globo H-lipids; details: glycan immobilized on microtiter plate from 0.001 to 10 μg/mL; FIG. 8A
Procedure: Enzyme-linked immunosorbent assay. Clear Flat-Bottom Immuno Nonsterile 96-Well Plates (Thermo Fisher Scientific Inc., Cat#442404)) were coated with the respective glycan-linked glycopeptides at 0.2 μg to 50 μL ethanol per well and were incubated at room temperature overnight. Then 100 μL Casein Blocking Buffer (Sigma-Aldrich Co. LLC, Cat#B6429) was added to each well and the microtiter plate was incubated at room temperature for 30 minutes. All subsequent steps were performed at room temperature.
The microtiter plate was treated with 50 μL of different dilutions of VK9 cells in Casein Blocking Buffer to each well and incubated at room temperature for 1 hr. The wells were then washed three times with Phosphate-buffered saline (Thermo Fisher Scientific Inc., Cat#70011) plus 0.05% (vol/vol) Tween 20 (J. T. Baker, Cat#JTB-X251-07) using a microplate washer (SkanWash 400, Molecular Devices LLC.). […]
The microtiter plate was treated with 100 μL of Alkaline Phosphatase (pNPP) Yellow Liquid Substrate System for ELISA (Sigma-Aldrich Co. LLC., Cat#P7998) at 37° C. for 20 minutes and the reaction was stopped by adding another 50 μL of Stop Solution (3N NaOH). The bound VK9 cells were visualized monitored at 405 nm using a microplate reader (SpectraMax M2, Molecular Devices LLC.). […]

[4] = tested on: Human IgM; assay: Glycan array analysis (secondary test), relative anti-glycan Human IgM, pancreatic cancer; format: binding
Procedure: The reagents, equipment and assay procedures were totally the same as primary test. However, the intensity of array was converted into “Ab level (μg/mL)” based on following calculation which is relative to Anti-human Globo H IgG.
The internal curve of each chip was using linear regression to calculate slope and intercept. In certain examples, the Ab level (μg/mL)=[(raw data-intercept)/slope]×0.1. The internal curve was performed using 0.0625, 0.125, 0.25, 0.5, 0.75, and 1 μg/mL of human IgM.
Relative Anti-glycan Human IgM: There were total 277 clinical samples (108 pancreatic cancer and 169 healthy serum) performed using Globo H-lipid 1 and SSEA-4-lipid 1 immobilized arrays. The median values of Globo H-lipid 1 IgM test were 0.32 (pancreatic cancer) and 0.25 (healthy) [FIG. 11A]. The median values of SSEA-4-lipid 1 IgM test were 0.12 (pancreatic cancer) and 0.08 (healthy) [FIG. 11B].

[5] = tested on: Human IgG; assay: Glycan array analysis (primary test), glycan score of Human IgG; format: binding
Excerpt: as §1
The Microfluidic cartridge was manufactured at Agnitio Science and Technology Inc. The microfluidic cartridge was composed by three layers shown in FIG. 9. The upper layer contained serum and reagents reservoirs, microfluidic pumps, and ELISA channel network. […]
as §2

| Compound | median glycan score, IgM test ([1]; healthy serum) | median glycan score, IgM test ([1]; pancreatic cancer serum) | Mean (IgM) Healthy (n = 100) ([2]; healthy samples) | Mean (IgM) Pancreatic cancer (n = 115) ([2]; pancreatic cancer samples) | optical density at 405 nm (OD405) [3] | median Ab level, IgM test ([4]; healthy serum) | median Ab level, IgM test ([4]; pancreatic cancer serum) | median glycan score, IgG test ([5]; healthy serum) | median glycan score, IgG test ([5]; pancreatic cancer serum) |
| --- | --- | --- | --- | --- | --- | --- | --- | --- | --- |
| Globo H-ceramide [reference compound] | 1.57 | 2.53 | 1977.88 | 3130.03 |  |  |  |  |  |
| CCCCCCCCCCCCCCCCOC[C@@H](COC(=O)CCCC(=O)NCCCCCO[C@H]1OC(CO)[C@@H](O[C@@H]2OC(CO)[C@H](O[C@H]3OC(CO)[C@H](O)C(O[C@@H]4OC(CO)[C@H](O)C(O[C@@H]5OC(CO)[C@H](O)C(O)C5O[C@@H]5OC(C)[C@@H](O)C(O)C5O)C4NC(C)=O)C3O)C(O)C2O)C(O)C1O)OCCCCCCCCCCCCCCCC (stereo partly shown) [Globo H-lipid 2] |  |  |  |  | higher than Globo H-ceramide |  |  |  |  |
| CCCCCCCCCCCCCCCCOCC(OCCCCCCCCCCCCCCCC)C(=O)NCCCCCO[C@H]1OC(CO)[C@@H](O[C@@H]2OC(CO)[C@H](O[C@H]3OC(CO)[C@H](O)C(O[C@@H]4OC(CO)[C@H](O)C(O[C@@H]5OC(CO)[C@H](O)C(O)C5O[C@@H]5OC(C)[C@@H](O)C(O)C5O)C4NC(C)=O)C3O)C(O)C2O)C(O)C1O (stereo partly shown) [Globo H-lipid 1] | 2.56 | 6.64 |  |  |  | 0.25 µg/mL | 0.32 µg/mL | 0.12 | 0.54 |
| CCCCCCCCCCCCCCCCOC[C@@H](OCCCCCCCCCCCCCCCC)C(=O)NCCCCCO[C@@H]1O[C@H](CO)[C@@H](O[C@@H]2O[C@H](CO)[C@H](O[C@H]3O[C@H](CO)[C@H](O)[C@H](O[C@@H]4O[C@H](CO)[C@H](O)[C@H](O[C@@H]5O[C@H](CO)[C@H](O)[C@H](O[C@]6(C(=O)O)C[C@H](O)[C@@H](NC(C)=O)[C@H]([C@H](O)[C@H](O)CO)O6)[C@H]5O)[C@H]4NC(C)=O)[C@H]3O)[C@H](O)[C@H]2O)[C@H](O)[C@H]1O [SSEA-4-lipid 1] |  |  |  |  |  | 0.08 µg/mL | 0.12 µg/mL |  |  |
